This is an account of results in US20080081039A1, “Inorganic Selenium For Treatment Of Cancer” (priority 2004, published 2008).

Values joined by “and” are separate entries in the source; they are usually repeats but may differ in a detail not shown here. Identical values can stand only once. Like-named read-outs stand apart in the source and are kept apart here.

The subject of one series is GFP-FKHR fusion protein. In words: GFP-FKHR cellular localization in transfected PC-3 cells. It counts as cell-based, human. The settings on record: LY294002 50 μM 1 hour; sodium selenate or selenomethionine 0.5 mM 3 hours. The protocol: The day before transfection, 5×10^5 PC-3 cells were seeded in 24-well dishes and transiently transfected with 0.8 μg of pcDNA3-GFP-FKHRwt construct (kind gift Dr Bill Sellers, Dana-Farber Institute, Boston) using Lipofectamine 2000 (Invitrogen). Cells were permeabilized in 0.2% Triton X-100 and the nuclear contents stained with DAPI. Coverslips were mounted with fluorescent mounting medium (DAKO). The cellular distribution of green fluorescence was determined in dual fluorescent cells using a Leica epifluorescent microscope.
Reintroducing PTEN function in such cells induces translocation of FKHR to the nucleus eventually causing G1 arrest in PTEN-null cells (Nakamura et al 2000, supra).

Series [1] has as its system prostate tumor PC-3 cells. The protocol:
1×10^6 prostate tumor PC-3 cells were injected into the prostate of nude mice. […] Paclitaxel at 10 mg/kg was administered intraperitoneally once per week in 10% Cremophor EL/25% ethanol/65% PBS solution to those animals receiving paclitaxel. 10 animals were used per group. After 5 weeks post injection, animals were sacrificed, the prostates removed, the appendages dissected off and the tumors weighed. The retroperitoneum was explored for lymphadenopathy and lymph nodes greater than 0.5 mm diameter excised. The tumors were then step sectioned at 50 micron steps and tumor volumes calculated from the digitized images using the standard volumetric formula […].

In a further series the test system is Akt. Put plainly: Activation of Akt by different selenium compounds in PC-3 cells, immunoblot. It counts as cell-based, human. The settings on record: serum starved PC-3 cells. The text has this: Signal intensities from the developed films were scanned and intensities of active Akt correlated to total Akt levels were plotted.
(In general: In western blotting, separated proteins are transferred to a membrane and probed.)

Series [2] deals with PC-3 cells. As to the method:
Cells were allowed to grow until the indicated time points, then harvested, washed in PBS and fixed in ice cold 70% ethanol for 15 minutes. Cells were washed with PBS and resuspended in PBS containing 40 μg/mL of propidum iodide (Sigma) and […] of RNase. DNA histograms were generated for each reading and the proportion of cells present in the G1 and G2/M peaks determined. Results were obtained for three independent experiments.

Series [3] has as its system PC-3 cells. Put plainly: MTT growth assay. It counts as cell-based, human. The protocol: MTT Growth Assays involved plating 1×10^3 PC-3 cells per well in a 96 well plate and allowing the cells to attach overnight. […] The controls for this experiment received an equal volume of LY294002 diluent (DMSO). MTT growth assays were then performed according to the manufacturer's protocol (Sigma).

Series [4] deals with human prostate tumor cells. The settings on record: in comparison to organic selenomethionine, methylselenocysteine or selenized yeast; cited from earlier work.
Series [5] has as its system PC-3 cells. Particulars: 5 weeks, vs controls. As to the method:
Animal experimentation involved the use of BALB/c nude mice. On day one of the experiment 6 week old BALB/c nude mice were anaesthetized with an intraperitoneal injection of ketamine 100 mg/kg and xylazine 20 mg/kg. Under magnification 1×10^6 PC-3 cells with viability greater than 95%, were injected into the dorsolateral prostate, essentially as described in Corcoran, N. M., Najdovska, M., and Costello, A. J. (2004), J. Urol., 171:907-910.
On day 3 of the experiment all mice were switched to the D19101 minimal selenium diet with an assayed selenium content of 0.07 ppm (Research Diets Inc., New Brunswick, N.J., USA). […] After 5 weeks of supplementation mice were culled and tumor-containing prostate glands were then weighed and measured with a Vernier calliper. The retroperitonium was then explored under magnification cephadally to the level of the renal veins and lymph nodes measuring greater than 0.5 mm identified.
The degree of apoptosis in tissue samples was determined using an in situ TUNEL Cell Death Detection Kit (Roche Applied Science) according to the manufacture's instructions. The number of brown staining cells at high power (×400) were counted in 10 randomly chosen fields in areas where necrosis was absent on H&E staining of adjacent sections.
The rate of tumor cell proliferation was determined by in vivo BrdU incorporation. Two hours prior to culling, the mice were injected with 50 mg/kg BrdU (Sigma) intraperitoneally. 5 μm sections were cut, fixed in absolute methanol at 4° C. for 10 minutes. Sections were rehydrated in PBS and incubated in 2 N HCl for 1 hour at 37° C. to denature the DNA. The acid was neutralized by immersing the slides in 0.1 M borate buffer (pH 8.5). Following 3×PBS washes the samples were incubated with a monoclonal antibody to bromodeoxyuridine (BrdU) (Roche Applied Science) at a concentration of 5 μg/mL diluted in 0.1% BSA in PBS for 1 hour at room temperature, then overnight at 4° C. Samples were washed 3× times in PBS and incubated for 1 hour with a biotinylated link immunoglobulin mixture (DAKO Corporation). […] 10 fields at high power (×400) were chosen at random and the number of brown staining cells counted.

The test system of series [6] is human prostate cancer PC-3 cells. Put plainly: Cell toxicity by Trypan Blue Exclusion, selenate versus selenite. The settings on record: 5 μM or 50 μM, 24 to 96 hours. The protocol:
5×10^3 human prostate cancer PC-3 cells were seeded in a 24-well dish and 8 hours later were treated with either 5 μM or 50 μM of selenate or selenite. The dose range of 5 μM or 50 μM is equivalent to 0.1 mg/kg to 1.25 mg/kg. Cells were harvested at 24, 48, 72 and 96 hours following the addition of selenate or selenite and the percentage of viable cells as assessed by Trypan Blue staining was determined.
All cells in the tissue culture wells were then harvested sequentially at periods between 24 and 96 hours following addition of the treatments. The percentage of viable cells were then determined using the Trypan Blue exclusion assay.

With `O=[Se](=O)(O)O` [sodium selenate], the “relocalization of GFP-FKHR from the cytoplasm to the nucleus” value with GFP-FKHR fusion protein is “marked relocalization”. Also, in series [1] (5 ppm selenium in drinking water and/or paclitaxel 10 mg/kg intraperitoneally once per week, 5 weeks, control received Cremophor/ethanol carrier), the prostate tumor weights result is given as “not reduced compared to the control”. For the same compound, the “microvessel density in the tumors” value in series [1] (selenate alone, 5 ppm in drinking water) is on record as “greater effect on reducing microvessel density in the tumors than on tumor volumes”. In the series with Akt (125 μM, 6 hours), the “activation of Akt (phosphorylated Akt relative to total Akt)” value is on record as “inhibits activation of Akt”. Further, in the series on Akt (500 μM, 1 hour), the “activation of Akt at high dose” value is on record as “inhibited activation of Akt”. The “percentage of the cell population in G1” value in the series on PC-3 cells [2] (0.25 and 0.5 mM, 24 hours, control 55%) is reported as 69-70%. For the same compound, the “percentage of PC-3 cells at G2/M phase” value in the series on PC-3 cells [2] (48 hours) is on record as “decreased”. Further, the “percentage of the cell population in G1” value in the series on PC-3 cells [2] (48 hours, dose- and time-dependent) is “increased”. For the same compound, the “percentage of cells at G2/M phase” value in the series on PC-3 cells [2] (increasing concentrations (0.25, 0.5 mM), 24 hours, control 28%) was 19% and 24%. The “PC-3 cell proliferation (MTT proliferative index)” value with PC-3 cells [3] (0.25 and 0.5 mM, 72 hour) was “markedly reduced”. Moreover, the “proliferative inhibition with added LY294002” value in the series with PC-3 cells [3] (high dose sodium selenate plus LY294002, 72 hours) is reported as “not enhanced by LY294002”. The “PC-3 cell number (MTT)” value with PC-3 cells [3] (lowest dose 0.01 mM) is listed as “slight, but reproducible boost in cell number”. In addition, the tumor progression entry in series [4] is listed as “significantly reduces tumor progression”. The “number of retroperitoneal lymph nodes” value in the series on PC-3 cells [5] (5 ppm in drinking water, lymph nodes greater than 0.5 mm) is “significantly decreased”. Besides, in the series with PC-3 cells [5] (5 ppm in drinking water), the “BrdU incorporation in prostate tumors” value is on record as “significantly impaired”, the “apoptosis (Tunel assay) in prostate tumors” value is given as “not significantly different” and the tumor volume difference entry is recorded as “just failed to reach significance”. In addition, in the series with PC-3 cells [5] (5 ppm selenium as sodium selenate in drinking water), the “primary tumor growth assessed by the prostate weight index” value was “significantly inhibit”. In series [6], the “cytotoxic effect (Trypan Blue exclusion)” value is “not cytotoxic” and the “percentages of viable cells” value was “equivalent to the control untreated samples”.
